Earlier results, collected in article PMC10423561, “Effects of the CYP3A inhibitors, voriconazole, itraconazole, and fluconazole on the pharmacokinetics of osimertinib in rats” (PeerJ, 2023).
Read-outs that look alike come from different tables or passages of the source.

What was measured:
[1] = set-up: method as in Fu et al., 2023; details: ref Fu et al., 2023, cited from earlier work
[2] = tested on: CYP3A; details: CYP3A probe substrate; inhibitor not stated; ref Uchida, Tanaka & Namiki, 2014; cited from earlier work

| Compound | increase in systemic exposure of almonertinib ([1]; with FCZ) | increase in systemic exposure of almonertinib ([1]; with VCZ) | increase in AUC0–360 of midazolam [2] |
| --- | --- | --- | --- |
| C=CC(=O)Nc1cc(Nc2nccc(-c3cn(C4CC4)c4ccccc34)n2)c(OC)cc1N(C)CCN(C)C [almonertinib] | 3.4 fold | 2.7 fold | – |
| Cc1ncc2n1-c1ccc(Cl)cc1C(c1ccccc1F)=NC2 [midazolam] | – | – | 133% |
